Results published in ChEMBL document CHEMBL5465560, “Selectivity Literature for EUbOPEN Chemogenomic Library” (2024).
Blank lines part the entries; values can stand above or below the compound they belong to.

How the values were obtained:
[1] = target: T1, Mitogen-activated protein kinase kinase kinase 7 (Homo sapiens) (UniProt O43318); assay: Selectivity interaction (KinomeScan (DiscoverX)) EUB0001619a MAP3K7; settings: at 1 µM
T1 sequence (whole entry): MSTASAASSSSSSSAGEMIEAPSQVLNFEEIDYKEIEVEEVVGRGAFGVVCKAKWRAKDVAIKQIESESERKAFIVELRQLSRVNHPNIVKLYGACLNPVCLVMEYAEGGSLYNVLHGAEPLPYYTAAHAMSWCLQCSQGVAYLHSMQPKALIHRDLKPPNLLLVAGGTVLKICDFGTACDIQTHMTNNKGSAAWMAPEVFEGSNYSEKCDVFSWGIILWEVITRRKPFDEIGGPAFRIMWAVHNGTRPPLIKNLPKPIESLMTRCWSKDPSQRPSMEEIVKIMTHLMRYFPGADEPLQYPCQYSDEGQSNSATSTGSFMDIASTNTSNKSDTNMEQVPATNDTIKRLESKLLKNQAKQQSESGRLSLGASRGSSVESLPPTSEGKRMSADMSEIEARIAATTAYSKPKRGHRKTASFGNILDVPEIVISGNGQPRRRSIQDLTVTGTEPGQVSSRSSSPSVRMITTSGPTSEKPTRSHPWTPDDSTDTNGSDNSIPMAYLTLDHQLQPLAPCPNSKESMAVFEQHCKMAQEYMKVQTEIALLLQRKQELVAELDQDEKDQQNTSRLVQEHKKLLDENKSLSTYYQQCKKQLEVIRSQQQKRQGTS

[2] = target: T2, Tyrosine-protein kinase receptor TYRO3 (Homo sapiens) (UniProt Q06418); assay: Selectivity interaction (Upstate Kinase Profiler service (Millipore)) EUB0000056c TYRO3; settings: at 1 µM
T2 sequence (whole entry): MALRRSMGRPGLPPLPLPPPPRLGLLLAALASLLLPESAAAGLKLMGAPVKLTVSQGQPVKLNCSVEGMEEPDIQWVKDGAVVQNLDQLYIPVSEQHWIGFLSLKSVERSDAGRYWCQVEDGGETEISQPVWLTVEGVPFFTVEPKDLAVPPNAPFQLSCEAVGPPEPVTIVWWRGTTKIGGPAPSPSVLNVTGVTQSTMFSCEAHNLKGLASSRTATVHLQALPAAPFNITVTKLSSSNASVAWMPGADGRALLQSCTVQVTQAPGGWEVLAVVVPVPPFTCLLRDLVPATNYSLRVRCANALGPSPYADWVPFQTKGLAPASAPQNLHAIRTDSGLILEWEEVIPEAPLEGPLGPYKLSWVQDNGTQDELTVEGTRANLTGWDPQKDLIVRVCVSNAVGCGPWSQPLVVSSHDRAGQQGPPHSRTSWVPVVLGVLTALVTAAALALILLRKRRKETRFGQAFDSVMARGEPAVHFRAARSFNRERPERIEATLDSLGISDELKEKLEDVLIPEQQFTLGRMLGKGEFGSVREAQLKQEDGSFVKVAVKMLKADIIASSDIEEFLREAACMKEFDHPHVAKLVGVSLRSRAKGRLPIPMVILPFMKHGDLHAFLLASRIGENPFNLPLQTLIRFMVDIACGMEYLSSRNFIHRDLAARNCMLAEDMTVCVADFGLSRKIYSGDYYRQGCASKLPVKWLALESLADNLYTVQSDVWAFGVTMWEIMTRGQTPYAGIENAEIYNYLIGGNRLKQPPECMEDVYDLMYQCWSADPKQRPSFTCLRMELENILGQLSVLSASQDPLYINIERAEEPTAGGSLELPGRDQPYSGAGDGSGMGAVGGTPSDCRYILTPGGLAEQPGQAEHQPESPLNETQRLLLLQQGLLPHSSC

[3] = target: Ribosomal protein S6 kinase alpha-2 (Homo sapiens) (UniProt Q15349); assay: Selectivity interaction (Kinase panel (Invitrogen)) EUB0000639a RPS6KA2; settings: at 200 nM
[4] = target: T3, Dual specificity mitogen-activated protein kinase kinase 5 (Homo sapiens) (UniProt Q13163); assay: Selectivity interaction (KinomeScan (DiscoverX)) EUB0001049a MAP2K5; settings: at 1 µM
T3 sequence (whole entry): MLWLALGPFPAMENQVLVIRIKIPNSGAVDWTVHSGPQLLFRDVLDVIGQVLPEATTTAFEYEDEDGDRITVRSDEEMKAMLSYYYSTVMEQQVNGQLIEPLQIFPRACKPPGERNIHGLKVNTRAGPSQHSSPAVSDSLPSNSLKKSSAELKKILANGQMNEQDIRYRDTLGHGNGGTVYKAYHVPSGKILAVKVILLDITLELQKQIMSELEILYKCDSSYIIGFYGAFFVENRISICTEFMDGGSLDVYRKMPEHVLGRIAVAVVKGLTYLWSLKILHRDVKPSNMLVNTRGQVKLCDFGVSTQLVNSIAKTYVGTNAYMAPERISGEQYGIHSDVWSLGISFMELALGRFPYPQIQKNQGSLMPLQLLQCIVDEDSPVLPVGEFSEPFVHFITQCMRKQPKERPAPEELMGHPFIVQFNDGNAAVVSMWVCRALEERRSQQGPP

[5] = target: T4, Serine/threonine-protein kinase Chk1 (Homo sapiens) (UniProt O14757); assay: Selectivity interaction (Kinase panel (Z-LYTE Assay)) EUB0001632a CHEK1; settings: at 10 µM
T4 sequence (whole entry): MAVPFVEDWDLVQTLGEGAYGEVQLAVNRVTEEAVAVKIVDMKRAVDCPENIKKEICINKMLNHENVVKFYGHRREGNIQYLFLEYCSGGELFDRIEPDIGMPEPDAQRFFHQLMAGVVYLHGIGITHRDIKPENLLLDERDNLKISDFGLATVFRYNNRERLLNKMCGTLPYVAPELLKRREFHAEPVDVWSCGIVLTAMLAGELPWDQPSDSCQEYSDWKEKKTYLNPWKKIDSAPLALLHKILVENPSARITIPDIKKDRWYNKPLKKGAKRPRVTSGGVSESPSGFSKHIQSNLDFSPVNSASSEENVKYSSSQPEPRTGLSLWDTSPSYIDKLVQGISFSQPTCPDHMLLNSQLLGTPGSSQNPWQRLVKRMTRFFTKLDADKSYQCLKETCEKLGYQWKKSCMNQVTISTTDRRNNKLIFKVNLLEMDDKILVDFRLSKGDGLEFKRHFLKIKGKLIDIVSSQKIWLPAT

Chain of Ribosomal protein S6 kinase alpha-2 (Homo sapiens) (Q15349 whole entry): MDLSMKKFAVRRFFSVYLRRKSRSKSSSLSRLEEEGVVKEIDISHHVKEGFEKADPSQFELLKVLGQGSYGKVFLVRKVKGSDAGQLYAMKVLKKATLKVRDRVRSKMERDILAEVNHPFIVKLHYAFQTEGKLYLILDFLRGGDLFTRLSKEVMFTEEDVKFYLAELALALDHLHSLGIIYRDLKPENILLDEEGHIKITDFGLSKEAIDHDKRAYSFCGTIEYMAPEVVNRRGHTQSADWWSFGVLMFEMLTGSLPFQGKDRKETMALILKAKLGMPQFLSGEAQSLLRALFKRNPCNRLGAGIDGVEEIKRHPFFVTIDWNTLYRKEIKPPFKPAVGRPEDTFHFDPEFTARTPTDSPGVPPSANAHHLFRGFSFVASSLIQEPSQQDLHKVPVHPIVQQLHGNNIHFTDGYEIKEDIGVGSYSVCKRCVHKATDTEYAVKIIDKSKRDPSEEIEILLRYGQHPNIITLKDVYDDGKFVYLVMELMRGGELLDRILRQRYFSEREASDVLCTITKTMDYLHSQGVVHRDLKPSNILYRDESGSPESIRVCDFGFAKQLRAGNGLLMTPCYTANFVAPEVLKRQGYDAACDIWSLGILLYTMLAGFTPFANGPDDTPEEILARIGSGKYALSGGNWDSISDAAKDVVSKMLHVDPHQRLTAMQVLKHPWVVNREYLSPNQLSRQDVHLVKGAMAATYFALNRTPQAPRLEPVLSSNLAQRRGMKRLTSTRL

Compound: N#Cc1cccc(-c2c[nH]c3ncnc(N4CCOCC4)c23)c1
% of control [1]: 55%

% of inhibition [2]: 10%
Compound: Cc1ccc(-c2ccc3c(ccc4sc5c(c43)NC[C@@H](C)NC5=O)n2)cn1

% of inhibition [3]: -0.472%
Compound: CC[C@@H]1[C@H](F)C(=O)N[C@@H]1COc1nccc2cc(C(N)=O)c(OC)cc12 [ZIMLOVISERTIB]

Compound: COc1cc(Nc2nc(C)cc(-c3cnn4nc(OC)ccc34)n2)cc(C(F)(F)F)c1
% of control [4]: 85%

% of control [5]: 37.8%
Compound: Cn1cc(-n2cnc3c(NCc4nc5cc(Cl)c(Cl)cc5[nH]4)nc(N4CCOCC4)nc32)cn1
